We go through 2 compounds from patent US20110218103A1, “Fluoroalkyl-substituted 2-amidobenzimidazoles” (BAYER CROPSCIENCE AG, priority 2010, published 2011).

In assay [1] the test system is Hordeum vulgare (HORVS). In words: Drought stress test on crop plants, spray application in greenhouse, visual damage rating. Type of assay: in vivo. Particulars: 25 g/ha, mean of three results. The procedure: Seeds of monocotyledonous and dicotyledonous crop plants were placed in sandy loam in wood-fiber pots, covered with soil and cultivated in a greenhouse under good growth conditions. The test plants were treated at the early leaf stage (BBCH10-BBCH13). To ensure uniform water supply before commencement of stress, the potted plants were supplied with the maximum amount of water immediately beforehand by dam irrigation and, after application, transferred in plastic inserts in order to prevent subsequent, excessively rapid drying. The inventive compounds, formulated in the form of wettable powders (WP), wettable granules (WG), suspension concentrates (SC) or emulsion concentrates (EC), were sprayed onto the green parts of the plants as an aqueous suspension at an equivalent water application rate of 600 l/ha with addition of 0.2% wetting agent (agrotin). Substance application was followed immediately by stress treatment of the plants (cold or drought stress). For cold stress treatment, the plants were kept under the following controlled conditions: Drought stress was induced by gradual drying out under the following conditions: “day”: 14 hours with illumination at 26° C. “night”: 10 hours without illumination at 18° C. The duration of the respective stress phases was guided mainly by the state of the untreated, stressed control plants and thus varies from crop to crop. It was ended (by re-irrigating or transfer to a greenhouse with good growth conditions) as soon as irreversible damage is observed on the untreated, stressed control plants. In the case of dicotyledonous crops, for example oilseed rape and soya, the duration of the drought stress phase was between 3 and 5 days, in the case of monocotyledonous crops, for example wheat, barley or corn, between 6 and 10 days. The duration of the cold stress phase varied between 12 and 14 days. The end of the stress phase was followed by an approx. 5-7-day recovery phase, during which the plants were once again kept under good growth conditions in a greenhouse. In order to rule out any influence of the effects observed by any fungicidal action of the test compounds, it was additionally ensured that the tests proceed without fungal infection and without infection pressure. After the recovery phase had ended, the intensities of damage were rated visually compared to untreated, unstressed controls of the same age (in the case of drought stress) or the same growth stage (in the case of cold stress). The intensity of damage was first assessed as a percentage (100%=plants have died, 0%=like control plants). These values were then used to calculate the efficacy of the test compounds (=percentage reduction in the intensity of damage as a result of substance application) by the following formula: [formula] EF: efficacy (%) DVus: damage value of the untreated, stressed control DVts: damage value of the plants treated with test compound The tables below list mean values in each case from three results of the same test. Effects of selected compounds of the formula (I) under drought stress: HORVS=Hordeum vulgare

Assay [2] has as its system Zea mays (ZEAMX). In words: Cold stress test on crop plants, spray application in greenhouse, visual damage rating. In kind it is in vivo. As to conditions: mean of three results. The procedure:
Seeds of monocotyledonous and dicotyledonous crop plants were placed in sandy loam in wood-fiber pots, covered with soil and cultivated in a greenhouse under good growth conditions. The test plants were treated at the early leaf stage (BBCH10-BBCH13). To ensure uniform water supply before commencement of stress, the potted plants were supplied with the maximum amount of water immediately beforehand by dam irrigation and, after application, transferred in plastic inserts in order to prevent subsequent, excessively rapid drying. The inventive compounds, formulated in the form of wettable powders (WP), wettable granules (WG), suspension concentrates (SC) or emulsion concentrates (EC), were sprayed onto the green parts of the plants as an aqueous suspension at an equivalent water application rate of 600 l/ha with addition of 0.2% wetting agent (agrotin). Substance application was followed immediately by stress treatment of the plants (cold or drought stress). For cold stress treatment, the plants were kept under the following controlled conditions: “day”: 12 hours with illumination at 8° C. “night”: 12 hours without illumination at 1° C. The duration of the respective stress phases was guided mainly by the state of the untreated, stressed control plants and thus varies from crop to crop. It was ended (by re-irrigating or transfer to a greenhouse with good growth conditions) as soon as irreversible damage is observed on the untreated, stressed control plants. In the case of dicotyledonous crops, for example oilseed rape and soya, the duration of the drought stress phase was between 3 and 5 days, in the case of monocotyledonous crops, for example wheat, barley or corn, between 6 and 10 days. The duration of the cold stress phase varied between 12 and 14 days. The end of the stress phase was followed by an approx. 5-7-day recovery phase, during which the plants were once again kept under good growth conditions in a greenhouse. […] The intensity of damage was first assessed as a percentage (100%=plants have died, 0%=like control plants). […]

`NC(=O)c1cccc2[nH]c(C(F)(F)C(F)(F)F)nc12` [1-2, 2-(pentafluoroethyl)-1H-benzimidazole-4-carboxamide]: the “EF (HORVS), efficacy = percentage reduction in the intensity of damage” value in assay [1] was over 5%. The “EF (ZEAMX), efficacy = percentage reduction in the intensity of damage” value in assay [2] (5 g/ha) is over 5%.
Take `NC(=O)c1cccc2[nH]c(C(F)(F)C(F)(F)C(F)(F)F)nc12` [1-17]: in assay [1], the “EF (HORVS), efficacy = percentage reduction in the intensity of damage” value is over 5%. Moreover, the “EF (ZEAMX), efficacy = percentage reduction in the intensity of damage” value in assay [2] (25 g/ha) was over 5%.
